Test system: Pyruvate Dehydrogenase beta (PDH-E1)
Experiment: Western blot, Pyruvate Dehydrogenase Beta levels
Type: cell-based, human
Description: The pyruvate kinase blots were stripped by incubating for 30 minutes with methanol, followed by two 10 minute washes with TBS-T, then 30 minutes of incubation with Stripping buffer at 50 deg C., and followed by two washes with 100 ml or more of TBS-T for 30′ each. The 2 blots were scanned in laser scanner to check for complete stripping. After making sure stripping of the antibody and the ECF reagent has worked, the blots were activated with methanol for 5 seconds, washed with water for 5 minutes, and TBST for 15 minutes. The blots are blocked for 1 hour with 5% blocking reagent in TBS-T at room temperature and then washed 3 times with TBS-T (1×-15′; 2×5′ each) and probed with the antibody for Pyruvate Dehydrogenase in 5% BSA (ABNOVA catalog # H00005162-M03) at 1:500 dilutions) overnight at 4 deg C. with shaking. After the overnight incubation with primary antibody for Pyruvate Dehydrogenase, the membranes were washed 3 times with TBS-T (1×-15′; 2×5′ each) and probed with the secondary antibody (antimouse; 1:10,000 dilution) for 1 h on the orbital tilting shaker at room temperature. […]
The levels of LDH and PDH were determined by probing the blots successively with primary antibodies for LDH and PDH, essentially as described above. […]

Q: How did the “Pyruvate Dehydrogenase Beta Normalized Volume (48 h)” value (HepG2, 5g glucose, 48 h, amount 50) turn out when `COC1=C(OC)C(=O)C(C/C=C(\C)CC/C=C(\C)CC/C=C(\C)CC/C=C(\C)CC/C=C(\C)CC/C=C(\C)CC/C=C(\C)CC/C=C(\C)CC/C=C(\C)CCC=C(C)C)=C(C)C1=O` [Q10, Coenzyme Q10] was run?
A: The value was 123.

Q: What about the “Pyruvate Dehydrogenase Beta Normalized Volume (24 h)” value (HepG2, 22G glucose, 24 h, amount 100) of the same compound?
A: Its value is 340.
